Assay results reported in ChEMBL document CHEMBL1122949, “Pepstatin-derived inhibitors of aspartic proteinases. A close look at an apparent transition-state analogue inhibitor” (J Med Chem, 1985).
pIC50, pKi: −log10 of the molar value. Numbered stars: 1 amine (or outer) side, 2 acyl side, 3 side chain; on linkers, the order of the positions; unused ones are H or OH. Square brackets hold non-standard residues; d marks the D form. Peptide text beside a SMILES is read from it. * marks the point of attachment. ξ: configuration not given here. X1 = CC[C@H](C)[C@H](NC(=O)[C@H](CC(C)C)NC[C@H](CC(C)C)N*)C(=O)N[C@@H](Cc1c[nH]cn1)C(=O)O; LeuΨ(ξCHOHCH2)Val = CC(C)C[C@H](N[*:1])C(O)C[C@H](C(=O)[*:2])C(C)C; Sta(3ξ) = CC(C)C[C@H](N[*:1])C(O)CC(=O)[*:2]; Isovaleryl = CC(C)CC(=O)*; Boc = CC(C)(C)OC(=O)*

How the values were obtained:
[1] = Compound was evaluated for the ability to inhibit penicillopepsin.
Pepsin A = Pepsin A (Sus scrofa, UniProt P00791); test: Inhibition of porcine pepsin
Sequence of Pepsin A (P00791 whole entry): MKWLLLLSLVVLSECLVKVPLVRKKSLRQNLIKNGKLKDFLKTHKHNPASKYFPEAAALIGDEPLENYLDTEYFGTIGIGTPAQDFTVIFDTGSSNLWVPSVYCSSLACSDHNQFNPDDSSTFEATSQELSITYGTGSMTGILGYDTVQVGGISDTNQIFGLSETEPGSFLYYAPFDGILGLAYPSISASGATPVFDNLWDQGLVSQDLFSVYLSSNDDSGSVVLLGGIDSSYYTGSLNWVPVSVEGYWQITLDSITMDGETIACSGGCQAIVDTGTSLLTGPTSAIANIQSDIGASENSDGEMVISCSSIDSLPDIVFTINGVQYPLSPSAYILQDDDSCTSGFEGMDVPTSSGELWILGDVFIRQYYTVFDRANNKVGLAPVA

Renin = molecular target: T1, Renin (Homo sapiens, UniProt P00797); test: Compound was evaluated for the ability to inhibit human plasma renin.; assay type: cell-free
T1 sequence (P00797 whole entry): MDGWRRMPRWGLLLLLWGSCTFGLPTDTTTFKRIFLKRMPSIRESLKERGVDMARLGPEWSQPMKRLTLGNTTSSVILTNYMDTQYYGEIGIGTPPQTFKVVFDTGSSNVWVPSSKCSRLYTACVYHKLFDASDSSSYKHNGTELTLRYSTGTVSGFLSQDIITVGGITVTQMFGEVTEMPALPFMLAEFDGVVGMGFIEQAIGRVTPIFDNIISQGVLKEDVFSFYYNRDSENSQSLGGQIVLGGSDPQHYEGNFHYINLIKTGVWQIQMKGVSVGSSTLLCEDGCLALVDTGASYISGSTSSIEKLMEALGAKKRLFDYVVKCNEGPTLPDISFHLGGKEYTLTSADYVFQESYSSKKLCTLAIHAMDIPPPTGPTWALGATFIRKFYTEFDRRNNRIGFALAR

Row | pKi [1] | pKi (Pepsin A) | pIC50 (Renin) | SMILES
1 | 7.33 | 8.00 |  | CCOC(=O)CC(O)[C@H](CC(C)C)NC(=O)[C@@H](NC(=O)[C@@H](NC(=O)CC(C)C)C(C)C)C(C)C (some centres not stated)
2 | 9.82 | 10.25 |  | CC(C)CC(=O)N[C@H](C(=O)N[C@H](C(=O)N[C@@H](CC(C)C)[C@@H](O)CC(=O)N[C@@H](C)C(=O)N[C@@H](CC(C)C)[C@@H](O)CC(=O)O)C(C)C)C(C)C [PEPSTATIN]
3 |  |  | 9.15 | CC[C@H](C)[C@H](NC(=O)[C@@H](CC(O)[C@H](CC(C)C)NC(=O)[C@H](Cc1cnc[nH]1)NC(=O)[C@H](Cc1ccccc1)NC(=O)[C@@H]1CCCN1C(=O)[C@H](Cc1cnc[nH]1)NC(=O)OC(C)(C)C)C(C)C)C(=O)N[C@@H](Cc1cnc[nH]1)C(=O)O (some centres not stated) (Boc-HPFH[LeuΨ(ξCHOHCH2)Val]IH-OH)
4 |  |  | 6.00 | CC[C@H](C)[C@H](NC(=O)[C@H](CC(C)C)NC[C@H](CC(C)C)NC(=O)C(Cc1c[nH]cn1)NC(=O)[C@H](Cc1ccccc1)NC(=O)[C@@H]1CCCN1C(=O)C(N)Cc1c[nH]cn1)C(=O)NC(Cc1c[nH]cn1)C(=O)O (stereo in doubt)
5 |  | 8.52 |  | CC(C)CNC(=O)[C@H](C)NC(=O)[C@@H](C)CC(O)[C@@H](CC(C)C)NC(=O)[C@H](NC(=O)CC(C)C)C(C)C (stereo in doubt; 16a(4S))
6 |  |  | 8.00 | CC[C@H](C)[C@H](NC(=O)[C@H](CC(C)C)NC[C@H](CC(C)C)NC(=O)[C@H](Cc1c[nH]cn1)NC(=O)[C@H](Cc1ccccc1)NC(=O)[C@@H]1CCCN1C(=O)[C@H](Cc1c[nH]cn1)NC(=O)[C@@H]1CCCN1)C(=O)N[C@@H](Cc1c[nH]cn1)C(=O)O (H-PHPFH-X1)
7 |  | 5.70 |  | CC(C)CCC(=O)NC(=O)C(C)NC(=O)CC(O)[C@H](CC(C)C)NC(=O)[C@@H](NC(=O)[C@@H](NC(=O)CC(C)C)C(C)C)C(C)C (some centres not stated)
8 | 7.07 | 8.00 |  | CC(C)CCC(=O)NC(=O)[C@H](C)NC(=O)CC(=O)[C@H](CC(C)C)NC(=O)[C@@H](NC(=O)[C@@H](NC(=O)CC(C)C)C(C)C)C(C)C
9 |  | 9.05 |  | CC(C)CCC(=O)NC(=O)[C@H](C)NC(=O)CC(O)[C@@H](Cc1ccccc1)NC(=O)[C@H](NC(=O)CC(C)C)C(C)C (some centres not stated)
10 |  |  | 5.15 | CC[C@H](C)[C@H](NC(=O)[C@H](Cc1ccccc1)NC(=O)[C@H](Cc1ccccc1)NC(=O)[C@H](Cc1c[nH]cn1)NC(=O)[C@H](Cc1ccccc1)NC(=O)[C@@H]1CCCN1C(=O)[C@H](Cc1c[nH]cn1)NC(=O)[C@@H]1CCCN1)C(=O)N[C@@H](Cc1c[nH]cn1)C(=O)O
11 |  | 6.15 |  | CC(C)CNC(=O)[C@H](C)NC(=O)[C@@H](C)CC(O)[C@@H](CC(C)C)NC(=O)[C@H](NC(=O)CC(C)C)C(C)C (stereo in doubt; 16b(4R))
12 | < 5.30 | 5.92 |  | CC(C)CCC(=O)NC(=O)[C@H](C)NC(=O)CC(O)[C@@H](CC(C)C)N(C)C(=O)[C@H](NC(=O)[C@@H](NC(=O)CC(C)C)C(C)C)C(C)C (stereo in doubt; 13a(3s))
13 |  | 6.68 |  | CC(C)CC(=O)N[C@H](C(=O)N[C@H](C(=O)N[C@H](CCC(=O)NC(C)C(=O)N[C@H](CCC(=O)O)CC(C)C)CC(C)C)C(C)C)C(C)C (some centres not stated)
14 |  |  | 8.72 | CC[C@H](C)[C@H](NC(=O)CC(O)[C@H](CC(C)C)NC(=O)[C@H](Cc1c[nH]cn1)NC(=O)[C@H](Cc1ccccc1)NC(=O)[C@@H]1CCCN1C(=O)[C@H](Cc1c[nH]cn1)NC(=O)CC(C)C)C(=O)N[C@@H](Cc1ccccc1)C(N)=O (some centres not stated) (Isovaleryl-HPFH[Sta(3ξ)]IF-NH2)
15 |  | 7.28 |  | CC(C)CNC(=O)CNC(=O)[C@@H](C)CC(O)[C@@H](CC(C)C)NC(=O)[C@H](NC(=O)CC(C)C)C(C)C (some centres not stated)
16 |  |  | 9.22 | CC[C@H](C)[C@H](NC(=O)CC(O)[C@H](CC(C)C)NC(=O)[C@H](Cc1c[nH]cn1)NC(=O)[C@H](Cc1ccccc1)NC(=O)[C@@H]1CCCN1C(=O)[C@H](Cc1c[nH]cn1)NC(=O)CC(C)C)C(=O)N[C@@H](Cc1ccccc1)C(=O)OC (some centres not stated) (Isovaleryl-HPFH[Sta(3ξ)]IF-OMe)
17 |  | 7.30 |  | CC(C)CCC(=O)NC(=O)[C@H](C)NC(=O)CCC(O)[C@@H](CC(C)C)NC(=O)[C@H](NC(=O)CC(C)C)C(C)C (some centres not stated)
18 |  | 7.25 |  | CC(C)CCC(=O)NC(=O)[C@@H](C)NC(=O)CC(=O)[C@H](CC(C)C)NC(=O)[C@@H](NC(=O)CC(C)C)C(C)C
19 |  | 7.57 |  | CC(C)CCC(=O)NC(=O)[C@@H](C)CC(O)[C@@H](CC(C)C)NC(=O)[C@H](NC(=O)CC(C)C)C(C)C (some centres not stated)
20 | 5.12 | 8.52 |  | CC(C)CCC(=O)NC(=O)[C@@H](C)NC(=O)CC(O)[C@H](CC(C)C)NC(=O)[C@@H](NC(=O)CC(C)C)C(C)C (some centres not stated)
21 |  | 6.96 |  | CC(C)CNC(=O)[C@@H](C)NC(=O)[C@@H](C)CC(=O)[C@H](CC(C)C)NC(=O)[C@@H](NC(=O)CC(C)C)C(C)C
22 |  | 7.25 |  | CC(C)CCC(=O)NC(=O)CNC(=O)CC(O)[C@@H](CC(C)C)NC(=O)[C@H](NC(=O)CC(C)C)C(C)C (some centres not stated)
